PubChem BioAssay (NCI)
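Five concentrations, 48 hours, 96-well plates. GI50 = concentration required for 50% inhibition of growth. TGI: concentration producing complete growth inhibition.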

Key:
Test in all cases: inhibition of tumour cell growth, NCI panel, 48 h
[1] = test system: DU-145 prostate
[2] = test system: SF-295 CNS
[3] = test system: PC-3 prostate
[4] = test system: HL-60(TB) leukemia
[5] = test system: HT29 colon
[6] = test system: SK-MEL-28 melanoma
[7] = test system: UACC-62 melanoma
[8] = test system: U251 CNS
[9] = test system: HCC-2998 colon
[10] = test system: TK-10 renal

Compound	TGI [1]	TGI [2]	TGI [3]	TGI [4]	TGI [5]	TGI [6]	TGI [7]	TGI [8]	TGI [9]	TGI [10]	GI50 [1]	GI50 [9]	GI50 [2]	GI50 [10]	GI50 [3]	GI50 [4]	GI50 [5]	GI50 [6]	GI50 [7]	GI50 [8]
O=C1CCC[C@H]2O[C@@H](COC(=O)c3ccccc3)C[C@H]2O1	> 100 µM	> 100 µM	> 100 µM	> 100 µM	> 100 µM	> 100 µM	> 100 µM	> 100 µM	–	–	–	–	–	–	–	–	–	–	–	–
O=c1oc(-c2ccc(O)cc2)cc2cc(O)ccc12	> 100 µM	> 100 µM	94 µM	48.6 µM	–	–	–	–	65.9 µM	> 100 µM	–	–	–	–	–	–	–	–	–	–
Cc1cc(N/N=C/c2nc(-c3ccc(Cl)cc3)oc2C)c2cc(Br)ccc2n1	7.67 µM	26.6 µM	6.07 µM	5.44 µM	5.99 µM	4.49 µM	4.43 µM	3.29 µM	12.5 µM	3.49 µM	2.66 µM	3.58 µM	12.4 µM	1.8 µM	2.31 µM	2.2 µM	2.31 µM	2.07 µM	2.02 µM	1.73 µM
COc1ccc(/C=C2\C[C@H]3[C@@H]4CCC5=C/C(=N/O)CC[C@]5(C)[C@H]4CC[C@]3(C)\C2=N\O)cc1	> 100 µM	> 100 µM	> 100 µM	–	45.3 µM	> 100 µM	> 100 µM	> 100 µM	49.7 µM	> 100 µM	–	–	–	–	–	–	–	–	–	–
O=c1nc2ccc([N+](=O)[O-])cc2[n+]([O-])[nH]1	> 100 µM	> 100 µM	> 100 µM	> 100 µM	> 100 µM	> 100 µM	> 100 µM	> 100 µM	> 100 µM	> 100 µM	–	–	–	–	–	–	–	–	–	–
C/C(=N\NC(=O)c1ccc(Cl)cc1)c1nc2ncccc2[nH]1	> 100 µM	> 100 µM	> 100 µM	70.2 µM	> 100 µM	> 100 µM	55.4 µM	> 100 µM	> 100 µM	64.9 µM	–	–	–	–	–	–	–	–	–	–
